From patent US20230227466A1, “SUBSTITUTED THIENOPYRIMIDINES THAT INTERACT WITH THE RAS SUPERFAMILY FOR THE TREATMENT OF CANCERS, INFLAMMATORY DISEASES, RASOPATHIES, AND FIBROTIC DISEASE” (SHY Therapeutics, LLC, priority 2020, published 2023)
Like-named read-outs stand apart in the source and are kept apart here.

Experiments:
KRas G12C mutant = molecular target: T1, KRas G12C mutant (Homo sapiens, UniProt P01116, G12C); experiment: Ras GTP binding domain inhibition assay (labeled-GTP competition, cell-free)
T1 construct: made in house
Summary of the method: (§1)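 First, the His-tagged protein was captured overnight at 4° C on nickel wells. Second, compound was applied at 20 μM or as a dilution series for IC50 over 3 h. Third, 100 nM Cy3- or Cy5-GTP was added for 45 min. Finally, wells were washed and bound label quantified.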

KRas G12D mutant = molecular target: T2, KRas G12D mutant (Homo sapiens, UniProt P01116, G12D); experiment: as above
T2 construct: made in house
Summary of the method: as §1

KRas Q61H mutant = molecular target: T3, KRas Q61H mutant (Homo sapiens, UniProt P01116, Q61H); experiment: as above
T3 construct: made in house
Summary of the method: as §1

[1] = tested on: Akt phosphorylation in Panc-1 cells; experiment: Western AKT cell-based phosphorylation assay; design: species or system human; conditions: at 10 μM, values in brackets < > are activation %, not inhibition
Summary of the method: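 Phospho-Akt (Ser473) western blot of Panc-1 lysates, with Ponceau S to confirm uniform loading. Before lysis, cells were serum-starved overnight (0.5% FBS), incubated 6 h at 37° C with 10 μM compound in 0.3% DMSO and stimulated 15 min with 1.5 ng/ml EGF.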

[2] = with SOS, read-out: KRas G12C mutant + SOS: % inh.
[3] = without SOS, read-out: KRas G12C mutant: % inh.
[4] = with SOS, read-out: KRas G12D mutant + SOS: % inh.
[5] = without SOS, read-out: KRas G12D mutant: % inh.
[6] = with SOS, read-out: KRas Q61H mutant + SOS: % inh.
[7] = without SOS, read-out: KRas Q61H mutant: % inh.

inhibition at 20 µM (KRas G12C mutant; [2]) [%]	inhibition at 20 µM (KRas G12C mutant; [3]) [%]	inhibition at 20 µM (KRas G12D mutant; [4]) [%]	inhibition at 20 µM (KRas G12D mutant; [5]) [%]	inhibition at 20 µM (KRas Q61H mutant; [6]) [%]	inhibition at 20 µM (KRas Q61H mutant; [7]) [%]	IC50 (KRas Q61H mutant; with SOS) [µM]	Compound	% inh of AKT phosphorylation in PANC-1 [1]
76 to 100	76 to 100	76 to 100	76 to 100	76 to 100	76 to 100	1 to 4.99	COCCn1ccnc1-c1nc(N[C@@H]2CC[C@H](OC)C2)c2ccsc2n1 (racemic) [Compound 8, Rac-N-((1R,3S)-3-methoxycyclopentyl)-2-(1-(2-methoxyethyl)-1H-imidazol-2-yl)thieno[2,3-d]pyrimidin-4-amine]	0 (0% inhibition)
76 to 100	26 to 50	51 to 75	26 to 50	51 to 75	26 to 50	–	COc1cccc(Nc2nc(-c3nccn3C)nc3sc(-c4ccn(C(C)C)n4)c(C)c23)n1.Cl [Compound 65, 6-(1-Isopropyl-1H-pyrazol-3-yl)-N-(6-methoxypyridin-2-yl)-5-methyl-2-(1-methyl-1H-imidazol-2-yl)thieno[2,3-d]pyrimidin-4-amine hydrochloride salt]	B (26-50% inhibition)
26 to 50	26 to 50	26 to 50	51 to 75	26 to 50	26 to 50	> 10	NC(=O)c1nc(O)c2scc(-c3ccccn3)c2n1 [Compound 18, 4-Hydroxy-7-(pyridin-2-yl)thieno[3,2-d]pyrimidine-2-carboxamide]	0 (0% inhibition)
